Experimental data: publication PMC11570452, “MOTS-c modulates skeletal muscle function by directly binding and activating CK2” (iScience, 2024)
Peptide text beside a SMILES is read from it.

What was measured:
[1] = tested on: skeletal muscle (gastrocnemius) glucose uptake; assay: In vivo skeletal muscle 2-deoxyglucose (2DG) uptake; parameters: species or system mouse (C57BL/6J)
Experimental: 2-deoxyglucose (2-DG) uptake experiment: Male C57BL/6J mice at 14–15 weeks of age were received sham injection (injected nothing) for seven days before the experiment to acclimated to the invasive stimulus by the injection. A selective CK2 inhibitor CX-4945 (MCE) was dissolved in 0.9% saline containing 5% DMSO. After 120 min of fasting, mice were intraperitoneally injected with a CK2 inhibitor at 25 mg/kg or vehicle.[45] Two hours later, mice were injected insulin at 0.75 U/kg (MilliporeSigma) and MOTS-c at 7.5 mg/kg (GenScript) or sterilized water. Then 10 min later, 5 μg of 2DG (Sigma-Aldrich) was injected.[46] Mice were euthanized 45 min after 2DG injection and gastrocnemius muscle was collected. The collected samples were stored at −80°C for further analyses. The entire gastrocnemius muscle was used for the analysis to avoid potential bias.
To measure glucose uptake into mouse skeletal muscle, 2-DG uptake measurement kit was used (Cosmo Bio). Gastrocnemius muscle samples were homogenized in 10 mM tris-HCL (pH. 8.1) and then incubated at 95°C for 15 min. Samples were centrifuged for 15 min at 17,800 g (4°C), and the supernatant was diluted in 10 mM tris-HCl.[66] Diluted samples ([…]) were used for further analysis according to the manufacturer’s instructions (Cosmo Bio Co.).

CK2α = target: T1, CK2α (Homo sapiens, UniProt P68400); assay: Surface plasmon resonance (Biacore assay), CK2α; assay type: binding; details: SPR, peptide immobilized, CK2α flowed
T1 construct: purchased GenScript
From the text: Figure 2 MOTS-c directly binds and activates CK2 in cell-free systems (A–C) Dot blot assays with (A) CK2 complex (contains both CK2α and CK2β subunits) immobilized, MOTS-c flowed over the membrane, and detected by MOTS-c antibody. (B–C) MOTS-c immobilized, CK2 complex flowed over the membrane, and detected by CK2α (B) and CK2β (C) antibodies. (D) CK2α or CK2β immobilized, MOTS-c flowed over the membrane, and detected by MOTS-c antibody. FO, flow over; IB, immunoblotting. (E): Surface plasmon resonance (Biacore assay) of MOTS-c (10 μg/mL) and CK2α (2.5 nM, 5.0 nM, 10 nM, and 20 nM). MOTS-c was immobilized on the sensor chip and CK2α flowed over the sensor chip. KD, dissociation constant. (F) Molecular docking simulation of the binding between MOTS-c and CK2α by using AlphaFold2. (G) CK2 activity assessed by kinase activity assay with/without MOTS-c in cell-free condition. […]
The kinetics of MOTS-c WT/K14Q (GenScript) and CK2α (GenScript)/β (IBL) were assessed by using surface plasmon resonance (Biacore T200, Cytiva). […] Then, since we detected the binding signal only with CK2α, CK2α was flowed (30 μL/min) over the sensor chip at 2.5 nM, 5.0 nM, 10 nM, and 20 nM in running buffer (0.01M HEPES, 0.15 M NaCl, 0.3 mM EDTA, and 0.05% tween). After each concentration of CK2α was assessed, CK2α was removed using 4 mM and 5 mM Sodium Hydroxide for MOTS-c and K14Q MOTS-c, respectively. […]

[2] = Plasma MOTS-c levels after MOTS-c administration; assay type: in vivo, mouse (C57BL/6J); details: single IP 7.5 mg/kg, young mice, n = 5 per time point
Experimental: Figure 3 MOTS-c modulates CK2 activity in a tissue-specific manner (A) Experimental design of a single MOTS-c administration (7.5 mg/kg) experiment in young mice (n = 5 per time point). (B) Plasma MOTS-c levels after MOTS-c administration. ∗: p < 0.05 versus time 0. (C) Quantification of CK2 activity assessed by western blotting in each tissue shown in ([…]). (E–F) CK2 activity assessed by western blotting with p-CK2 substrate antibody in gastrocnemius muscle (D), epididymal fat (E), and liver (F) after MOTS-c administration. ∗p < 0.05, ∗∗p < 0.01 versus time 0 in same tissue. (G–I) MOTS-c detection following CK2α immunoprecipitation (IP) in gastrocnemius muscle (G), epididymal fat (H), and liver (I) 30 min after MOTS-c administration (7.5 mg/kg). The "-" indicates tissues from non-MOTS-c administered mice, while the "+" indicates tissues from MOTS-c administered mice. (J–K) CK2 activity after 10 min MOTS-c treatment (10 μM) in differentiated skeletal muscle (J) and adipocyte (K). Data are represented as mean ± SEM for (B, C, J, and K).
Acute MOTS-c administration experiment: Male C57BL/6J mice at 10–12 weeks of age were randomly assigned to one of the experimental time points: 0 min, 15 min, 30 min, or 180 min. MOTS-c ([…]) was administered by intraperitoneal injection. At each time point, plasma was collected under anesthesia with isoflurane. […]

T1 sequence (P68400 whole entry): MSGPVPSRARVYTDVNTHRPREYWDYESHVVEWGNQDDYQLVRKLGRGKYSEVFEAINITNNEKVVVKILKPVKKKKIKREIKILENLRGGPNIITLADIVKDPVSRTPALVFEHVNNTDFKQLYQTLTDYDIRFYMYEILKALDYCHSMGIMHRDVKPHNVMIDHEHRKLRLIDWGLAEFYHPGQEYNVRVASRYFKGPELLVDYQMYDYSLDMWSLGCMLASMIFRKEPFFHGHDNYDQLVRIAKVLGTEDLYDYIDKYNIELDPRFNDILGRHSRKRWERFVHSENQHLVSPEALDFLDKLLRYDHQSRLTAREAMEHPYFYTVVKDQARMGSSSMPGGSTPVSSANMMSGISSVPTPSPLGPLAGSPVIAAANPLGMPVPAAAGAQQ

Row | Reciprocal of KD (CK2α) [nM⁻¹] | MOTS-c levels in plasma [2] | SMILES | Muscle glucose uptake, CK2 inhibitor co-administered with MOTS-c ([1]; CX-4945 25 mg/kg + MOTS-c 7.5 mg/kg) | Muscle glucose uptake with CK2 inhibitor alone ([1]; CX-4945 25 mg/kg IP 2 h before insulin 0.75 U/kg, p = 0.053, n = 10-11 per group)
1 |  |  | O=C(O)c1ccc2c(c1)nc(Nc1cccc(Cl)c1)c1ccncc12 [CX-4945] | prevented the increase in muscle glucose uptake by MOTS-c | decreased muscle glucose uptake (p = 0.053)
2 | 0.062 |  | CC[C@H](C)[C@H](NC(=O)[C@H](Cc1ccc(O)cc1)NC(=O)CNC(=O)[C@H](CCSC)NC(=O)[C@H](CCC(=O)O)NC(=O)[C@H](CCC(N)=O)NC(=O)[C@H](Cc1c[nH]c2ccccc12)NC(=O)[C@H](CCCNC(=N)N)NC(=O)[C@@H](N)CCSC)C(=O)N[C@@H](Cc1ccccc1)C(=O)N[C@@H](Cc1ccc(O)cc1)C(=O)N1CCC[C@H]1C(=O)N[C@@H](CCCNC(=N)N)C(=O)N[C@@H](CCC(N)=O)C(=O)N[C@@H](CC(C)C)C(=O)N[C@@H](CCCNC(=N)N)C(=O)O [K14Q MOTS-c] (H-MRWQEMGYIFYPRQLR-OH) |  | 
3 | 1.0 | increased MOTS-c levels in plasma | CC[C@H](C)[C@H](NC(=O)[C@H](Cc1ccc(O)cc1)NC(=O)CNC(=O)[C@H](CCSC)NC(=O)[C@H](CCC(=O)O)NC(=O)[C@H](CCC(N)=O)NC(=O)[C@H](Cc1c[nH]c2ccccc12)NC(=O)[C@H](CCCNC(=N)N)NC(=O)[C@@H](N)CCSC)C(=O)N[C@@H](Cc1ccccc1)C(=O)N[C@@H](Cc1ccc(O)cc1)C(=O)N1CCC[C@H]1C(=O)N[C@@H](CCCNC(=N)N)C(=O)N[C@@H](CCCCN)C(=O)N[C@@H](CC(C)C)C(=O)N[C@@H](CCCNC(=N)N)C(=O)O [MOTS-c] (H-MRWQEMGYIFYPRKLR-OH) |  | 
